Measurements as given in patent US11759455B2, “Substituted 1H-imidazo[4,5-b]pyridin-2(3H)-ones and their use as GLUN2B receptor modulators” (JANSSEN PHARMACEUTICA NV, priority 2016, dated 2023).
Read-outs that look alike come from different tables or passages of the source.

Biological target: T1, human GluN1/GluN2B NMDA receptors (Homo sapiens, UniProt Q13224)
T1 construct: expressed in transfected cells
Assay: Cell-based calcium flux (FLIPR) assay on cloned human NR1/NR2B ion channels expressed in mammalian cells (standard and HTS buffer variants);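 note: stable Tet-On inducible cell line, Ca2+ influx triggered by glutamate at about EC40 plus 10 µM glycine, fluorescent dye read-out over 5 min, normalized to control wells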
Conditions: read-out: NR2B IC50 (μM) standard assay

[1] = standard assay buffer (0.5 mM MgCl2 dye loading; 137 mM NaCl, 4 mM KCl assay buffer), human GluN1/GluN2B cells
[2] = standard assay buffer (0.5 mM MgCl2 in dye loading buffer; 137 mM NaCl, 4 mM KCl in assay buffer), human GluN1/GluN2B

T1 sequence (Q13224 27-1484, other chains not shown): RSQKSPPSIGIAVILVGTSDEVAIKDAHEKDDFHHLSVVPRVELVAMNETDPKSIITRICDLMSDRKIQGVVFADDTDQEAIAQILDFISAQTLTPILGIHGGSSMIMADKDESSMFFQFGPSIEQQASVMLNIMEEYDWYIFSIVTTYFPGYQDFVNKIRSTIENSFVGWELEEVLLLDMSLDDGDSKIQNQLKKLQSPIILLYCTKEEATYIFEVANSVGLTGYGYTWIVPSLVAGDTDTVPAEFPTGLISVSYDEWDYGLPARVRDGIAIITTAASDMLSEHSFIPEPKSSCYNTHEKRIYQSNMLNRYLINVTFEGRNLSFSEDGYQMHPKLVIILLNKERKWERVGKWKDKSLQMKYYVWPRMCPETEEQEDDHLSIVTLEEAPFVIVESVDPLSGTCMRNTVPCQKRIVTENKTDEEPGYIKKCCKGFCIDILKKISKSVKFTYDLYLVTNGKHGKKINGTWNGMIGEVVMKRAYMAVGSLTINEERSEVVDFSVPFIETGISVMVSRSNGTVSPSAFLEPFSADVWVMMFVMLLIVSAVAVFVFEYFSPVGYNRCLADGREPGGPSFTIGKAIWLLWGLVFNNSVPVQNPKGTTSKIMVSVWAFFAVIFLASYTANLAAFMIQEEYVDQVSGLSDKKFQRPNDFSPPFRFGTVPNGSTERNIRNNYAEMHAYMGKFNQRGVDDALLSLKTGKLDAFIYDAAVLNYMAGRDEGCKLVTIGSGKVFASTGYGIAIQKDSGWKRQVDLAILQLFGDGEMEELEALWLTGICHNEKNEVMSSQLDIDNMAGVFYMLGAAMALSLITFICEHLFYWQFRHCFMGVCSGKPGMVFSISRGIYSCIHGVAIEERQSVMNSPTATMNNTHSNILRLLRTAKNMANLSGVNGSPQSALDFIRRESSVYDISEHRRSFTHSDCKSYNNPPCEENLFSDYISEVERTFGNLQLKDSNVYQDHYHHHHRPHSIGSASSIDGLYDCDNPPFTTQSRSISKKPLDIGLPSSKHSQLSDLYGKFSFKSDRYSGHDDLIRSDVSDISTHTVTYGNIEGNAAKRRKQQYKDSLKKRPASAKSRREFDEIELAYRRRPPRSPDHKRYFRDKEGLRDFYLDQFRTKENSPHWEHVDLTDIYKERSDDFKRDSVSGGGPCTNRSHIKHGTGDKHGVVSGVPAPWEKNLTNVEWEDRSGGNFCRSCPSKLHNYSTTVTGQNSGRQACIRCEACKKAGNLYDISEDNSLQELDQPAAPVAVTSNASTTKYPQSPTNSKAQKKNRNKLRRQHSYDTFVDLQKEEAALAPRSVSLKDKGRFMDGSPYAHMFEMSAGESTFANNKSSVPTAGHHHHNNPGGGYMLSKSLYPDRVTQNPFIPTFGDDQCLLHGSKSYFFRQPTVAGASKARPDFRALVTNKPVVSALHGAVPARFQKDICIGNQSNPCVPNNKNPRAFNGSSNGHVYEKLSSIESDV

SMILES	IC50 [1] [µM]	IC50 [2] [µM]
Cn1c(=O)n(CC(=O)N2CC(F)C2)c2cc(-c3cccc(C(F)(F)F)c3)cnc21 [Example 34, 1-[2-(3-Fluoroazetidin-1-yl)-2-oxo-ethyl]-3-methyl-6-[3-(trifluoromethyl)phenyl]imidazo[4,5-b]pyridin-2-one]	0.065	
Cn1c(=O)n(Cc2cncc(F)c2)c2cc(-c3ccc(Cl)c(OC(F)F)c3)cnc21 [Example 544, 6-[4-Chloro-3-(difluoromethoxy)phenyl]-1-[(5-fluoro-3-pyridyl)methyl]-3-methyl-imidazo[4,5-b]pyridin-2-one]		0.09
Cc1cc(-c2cnc3c(c2)n(CC(=O)N2CC(F)(F)C2)c(=O)n3C)ccc1F [Example 413, 1-(2-(3,3-Difluoroazetidin-1-yl)-2-oxoethyl)-6-(4-fluoro-3-methylphenyl)-3-methyl-1H-imidazo[4,5-b]pyridin-2(3H)-one]		0.009
Cc1cccc(-c2cnc3c(c2)n(Cc2cncc(Cl)c2)c(=O)n3C)c1 [Example 374, 1-[(5-Chloro-3-pyridyl)methyl]-3-methyl-6-(m-tolyl)imidazo[4,5-b]pyridin-2-one]		0.416
Cn1c(=O)n(Cc2cncc(F)c2)c2cc(-c3ccc(F)c(F)c3)cnc21 [Example 343, 6-(3,4-Difluorophenyl)-1-[(5-fluoro-3-pyridyl)methyl]-3-methyl-imidazo[4,5-b]pyridin-2-one]		0.256
O=c1[nH]c2ncc(-c3cccc(C(F)(F)F)c3)cc2n1Cc1ncc(F)cn1 [Example 256, 1-[(5-Fluoropyrimidin-2-yl)methyl]-6-[3-(trifluoromethyl)phenyl]-3H-imidazo[4,5-b]pyridin-2-one]	0.134	
O=C(Cn1c(=O)[nH]c2ncc(-c3cccc(C(F)(F)F)c3)cc21)c1nccs1 [Example 215, 1-(2-Oxo-2-thiazol-2-yl-ethyl)-6-[3-(trifluoromethyl)phenyl]-3H-imidazo[4,5-b]pyridin-2-one]	0.365	
Cc1cc(-c2cnc3c(c2)n(Cc2cncc(F)c2)c(=O)n3C)ccc1F [Example 340, 6-(4-Fluoro-3-methyl-phenyl)-1-[(5-fluoro-3-pyridyl)methyl]-3-methyl-imidazo[4,5-b]pyridin-2-one]		0.052
Cn1c(=O)n(Cc2cnccn2)c2cc(-c3ccc(F)c(F)c3)cnc21 [Example 63, 6-(3,4-Difluorophenyl)-3-methyl-1-(pyrazin-2-ylmethyl)imidazo[4,5-b]pyridin-2-one]	2.3	
Cn1c(=O)n(Cc2cncc(Cl)c2)c2cc(-c3cccc(F)c3F)cnc21 [Example 375, 1-[(5-Chloro-3-pyridyl)methyl]-6-(2,3-difluorophenyl)-3-methyl-imidazo[4,5-b]pyridin-2-one]		1.51
COCCNC(=O)Cn1c(=O)[nH]c2ncc(-c3cc(F)cc(F)c3)cc21 [Example 610, 2-[6-(3,5-Difluorophenyl)-2-oxo-3H-imidazo[4,5-b]pyridin-1-yl]-N-(2-methoxyethyl)acetamide]		1.79
Cc1nnc(Cn2c(=O)n(C)c3ncc(-c4ccc(F)c(F)c4)cc32)o1 [Example 73, 6-(3,4-Difluorophenyl)-3-methyl-1-[(5-methyl-1,3,4-oxadiazol-2-yl)methyl]imidazo[4,5-b]pyridin-2-one]	0.314	
Cc1c(F)ccc(-c2cnc3c(c2)n(Cc2csnn2)c(=O)n3C)c1F [Example 576, 6-(2,4-Difluoro-3-methyl-phenyl)-3-methyl-1-(thiadiazol-4-ylmethyl)imidazo[4,5-b]pyridin-2-one]		0.05
O=c1[nH]c2ncc(-c3cccc(C(F)(F)F)c3)cc2n1Cc1ccncn1 [Example 23, 1-(Pyrimidin-4-ylmethyl)-6-[3-(trifluoromethyl)phenyl]-3H-imidazo[4,5-b]pyridin-2-one]	0.22	

Other lines, results leading:

IC50 [1] [µM]	IC50 [2] [µM]	SMILES
0.246		O=c1[nH]c2ncc(-c3cccc(C(F)(F)F)c3)cc2n1CCN1CC(F)C1 [Example 163, 1-[2-(3-Fluoroazetidin-1-yl)ethyl]-6-[3-(trifluoromethyl)phenyl]-3H-imidazo[4,5-b]pyridin-2-one]
1.98		O=c1[nH]c2ncc(-c3ccc(F)cc3)cc2n1Cc1ccccn1 [Example 286, 6-(4-Fluorophenyl)-1-(2-pyridylmethyl)-3H-imidazo[4,5-b]pyridin-2-one]
	0.118	Cc1cccc(-c2cnc3c(c2)n(Cc2cccnc2)c(=O)n3C)c1F [Example 357, 6-(2-Fluoro-3-methyl-phenyl)-3-methyl-1-(3-pyridylmethyl)imidazo[4,5-b]pyridin-2-one]
0.057		Cc1cncc(Cn2c(=O)[nH]c3ncc(-c4cccc(F)c4)cc32)c1 [Example 274, 6-(3-Fluorophenyl)-1-[(5-methyl-3-pyridyl)methyl]-3H-imidazo[4,5-b]pyridin-2-one]
0.082		Cc1csc(-c2cnc3[nH]c(=O)n(Cc4cc(C)on4)c3c2)c1 [Example 125, 1-[(5-Methylisoxazol-3-yl)methyl]-6-(4-methyl-2-thienyl)-3H-imidazo[4,5-b]pyridin-2-one]
0.115		O=c1[nH]c2ncc(-c3cccc(C(F)(F)F)c3)cc2n1CC1CC1 [Example 211, 1-(Cyclopropylmethyl)-6-[3-(trifluoromethyl)phenyl]-3H-imidazo[4,5-b]pyridin-2-one]
0.581		Cc1cc(C)cc(-c2cnc3[nH]c(=O)n(CCN4CCC4)c3c2)c1 [Example 170, 1-[2-(Azetidin-1-yl)ethyl]-6-(3,5-dimethylphenyl)-3H-imidazo[4,5-b]pyridin-2-one]
26.7		COc1ncccc1Cn1c(=O)[nH]c2ncc(-c3cccc(C(F)(F)F)c3)cc21 [Example 22, 1-[(2-Methoxy-3-pyridyl)methyl]-6-[3-(trifluoromethyl)phenyl]-3H-imidazo[4,5-b]pyridin-2-one]
1.34		Cc1ccccc1-c1cnc2[nH]c(=O)n(CCN3CC(F)C3)c2c1 [Example 186, 1-[2-(3-Fluoroazetidin-1-yl)ethyl]-6-(o-tolyl)-3H-imidazo[4,5-b]pyridin-2-one]
0.211		O=c1[nH]c2ncc(-c3cc(F)cc(F)c3)cc2n1CCN1CCC1 [Example 159, 1-[2-(Azetidin-1-yl)ethyl]-6-(3,5-difluorophenyl)-3H-imidazo[4,5-b]pyridin-2-one]
	0.709	CCOc1ccccc1-c1cnc2[nH]c(=O)n(Cc3cc(C)on3)c2c1 [Example 517, 6-(2-Ethoxyphenyl)-1-[(5-methylisoxazol-3-yl)methyl]-3H-imidazo[4,5-b]pyridin-2-one]
	0.491	Cc1cc(C)cc(-c2cnc3[nH]c(=O)n(Cc4cc(C)on4)c3c2)c1 [Example 516, 6-(3,5-Dimethylphenyl)-1-[(5-methylisoxazol-3-yl)methyl]-3H-imidazo[4,5-b]pyridin-2-one]
0.035		CCOC(=O)Cn1c(=O)[nH]c2ncc(-c3cccc(C(F)(F)F)c3)cc21 [Example 134, Ethyl 2-[2-oxo-6-[3-(trifluoromethyl)phenyl]-3H-imidazo[4,5-b]pyridin-1-yl]acetate]
	0.132	CCOc1ccc(F)cc1-c1cnc2[nH]c(=O)n(Cc3cc(C)on3)c2c1 [Example 521, 6-(2-Ethoxy-5-fluoro-phenyl)-1-[(5-methylisoxazol-3-yl)methyl]-3H-imidazo[4,5-b]pyridin-2-one]
8.33		O=c1[nH]cccc1Cn1c(=O)[nH]c2ncc(-c3cccc(C(F)(F)F)c3)cc21 [Example 32, 1-[(2-Oxo-1H-pyridin-3-yl)methyl]-6-[3-(trifluoromethyl)phenyl]-3H-imidazo[4,5-b]pyridin-2-one]
